# Several values for one entry are separate records, joined by “and”; a condition that tells them apart may be missing. Equal entries are not always repeated. Toxic doses and inconclusive results are not listed. Square brackets hold non-standard residues; d marks the D form. Peptide text beside a SMILES is read from it. * marks the point of attachment. ξ: configuration not given here. Cbz = O=C(OCc1ccccc1)*; ξV = CC(C)C(N)C(=O)O
# System: L1210 leukemia ip in BDF1 mice, survival T/C
# Test: NCI In Vivo Anticancer Drug Screen. Data for tumor model L1210 Leukemia (intraperitoneal) in B6D2F1 (BDF1) mice
# Details: endpoint: mean survival time, higher = longer survival
# Procedure, shortened: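 Tumor cells were implanted, animals were treated, and survival was followed. The result divides the treated measurement by the vehicle-control measurement.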
# [1] = dose: 100.0 mg/kg/injection, schedule: Q04DX003 (ip), vehicle: Klucel (hydroxypropylcellulose) (HPC)
# [2] = dose: 75.0 mg/kg/injection, schedule: Q01DX001 (ip), vehicle: saline
# [3] = dose: 150.0 mg/kg/injection, schedule: Q01DX001 (ip), vehicle: saline
# [4] = dose: 100.0 mg/kg/injection, schedule: Q01DX009 (ip), vehicle: saline with Tween-80
# [5] = dose: 100.0 mg/kg/injection, schedule: Q04DX002 (ip), vehicle: saline
# [6] = dose: 100.0 mg/kg/injection, schedule: Q04DX003 (ip), vehicle: saline
# [7] = dose: 200.0 mg/kg/injection, schedule: Q01DX009 (ip), vehicle: saline with Tween-80
# [8] = dose: 200.0 mg/kg/injection, schedule: Q04DX003 (ip), vehicle: saline
# [9] = dose: 400.0 mg/kg/injection, schedule: Q01DX009 (ip), vehicle: saline with Tween-80
# [10] = dose: 400.0 mg/kg/injection, schedule: Q04DX003 (ip), vehicle: saline
# [11] = dose: 50.0 mg/kg/injection, schedule: Q01DX001 (ip), vehicle: saline
# [12] = dose: 100.0 mg/kg/injection, schedule: Q01DX001 (ip), vehicle: saline
# [13] = dose: 25.0 mg/kg/injection, schedule: Q04DX003 (ip), vehicle: saline
# [14] = dose: 50.0 mg/kg/injection, schedule: Q04DX003 (ip), vehicle: saline
# [15] = dose: 25.0 mg/kg/injection, schedule: Q04DX002 (ip), vehicle: saline
# [16] = dose: 100.0 mg/kg/injection, schedule: Q01DX009 (ip), vehicle: Klucel (hydroxypropylcellulose) (HPC)
compound,measurement,setting,value
N/C(=N/N=C/c1ccccc1O)N/N=C\c1ccccc1O,T/C,"dose: 15.0 mg/kg/injection, schedule: Q01DX Z (ip), vehicle: carboxymethylcellulose (CMC)",93 % of control
same,T/C,"dose: 30.0 mg/kg/injection, schedule: Q01DX Z (ip), vehicle: carboxymethylcellulose (CMC)",92 % of control
same,T/C,"dose: 60.0 mg/kg/injection, schedule: Q01DX Z (ip), vehicle: carboxymethylcellulose (CMC)",97 % of control and 89 % of control
same,T/C,"dose: 120.0 mg/kg/injection, schedule: Q01DX Z (ip), vehicle: carboxymethylcellulose (CMC)",92 % of control and 100 % of control
same,T/C,"dose: 240.0 mg/kg/injection, schedule: Q01DX Z (ip), vehicle: carboxymethylcellulose (CMC)",100 % of control
same,T/C,"dose: 240.0 mg/kg/injection, schedule: Q01DX Z (oral), vehicle: carboxymethylcellulose (CMC)",105 % of control
same,T/C,"dose: 480.0 mg/kg/injection, schedule: Q01DX Z (ip), vehicle: carboxymethylcellulose (CMC)",94 % of control
same,T/C,"dose: 480.0 mg/kg/injection, schedule: Q01DX Z (oral), vehicle: carboxymethylcellulose (CMC)",105 % of control
same,T/C,"dose: 960.0 mg/kg/injection, schedule: Q01DX Z (oral), vehicle: carboxymethylcellulose (CMC)",105 % of control
same,T/C,"dose: 1920.0 mg/kg/injection, schedule: Q01DX Z (oral), vehicle: carboxymethylcellulose (CMC)",113 % of control
COC(=O)C(NC(=O)CNC(=O)CNC(=O)OCc1ccccc1)C(C)C (stereo not drawn) (Cbz-Gly-Gly-[ξV]-OMe),T/C,[1],96 % of control
same,T/C,"dose: 200.0 mg/kg/injection, schedule: Q04DX003 (ip), vehicle: Klucel (hydroxypropylcellulose) (HPC)",99 % of control
same,T/C,"dose: 400.0 mg/kg/injection, schedule: Q04DX003 (ip), vehicle: Klucel (hydroxypropylcellulose) (HPC)",92 % of control
NC1CC=CCC1c1ccc2c(c1)OCO2 (stereo not drawn),T/C,[2],100 % of control
same,T/C,[3],92 % of control
C/C(CC(C)C)=N\NC(=O)Nc1ccc(Cl)c(Cl)c1,T/C,[4],100 % of control and 112 % of control
same,T/C,[5],94 % of control and 106 % of control
same,T/C,[6],92 % of control
same,T/C,[7],101 % of control and 112 % of control
same,T/C,"dose: 200.0 mg/kg/injection, schedule: Q04DX002 (ip), vehicle: saline",93 % of control and 105 % of control
same,T/C,[8],95 % of control
same,T/C,[9],101 % of control and 106 % of control
same,T/C,"dose: 400.0 mg/kg/injection, schedule: Q04DX002 (ip), vehicle: saline",95 % of control and 105 % of control
same,T/C,[10],113 % of control
COc1ccc(C(C#N)N(C)C)cc1OC (stereo not drawn),T/C,[11],100 % of control
same,T/C,[12],100 % of control
CSc1ncc2cnccn12,T/C,"dose: 25.0 mg/kg/injection, schedule: Q01DX009 (ip), vehicle: water",95 % of control
same,T/C,[13],106 % of control
same,T/C,"dose: 50.0 mg/kg/injection, schedule: Q01DX009 (ip), vehicle: water",102 % of control
same,T/C,[14],101 % of control
same,T/C,"dose: 100.0 mg/kg/injection, schedule: Q01DX009 (ip), vehicle: water",102 % of control
same,T/C,[6],101 % of control
same,T/C,"dose: 100.0 mg/kg/injection, schedule: Q04DX003 (ip), vehicle: water",93 % of control
CN(C)CC(=O)c1c[nH]c(=O)[nH]c1=O,T/C,[4],112 % of control
same,T/C,[7],94 % of control
same,T/C,[9],102 % of control
CC(=O)OCCN1CCN(CCCN2c3ccccc3Sc3ccc(C(F)(F)F)cc32)CC1,T/C,"dose: 9.5 mg/kg/injection, schedule: Q04DX003 (ip), vehicle: saline with Tween-80",114 % of control
same,T/C,"dose: 12.5 mg/kg/injection, schedule: Q04DX003 (ip), vehicle: saline",106 % of control
same,T/C,"dose: 22.0 mg/kg/injection, schedule: Q04DX003 (ip), vehicle: saline with Tween-80",120 % of control and 123 % of control
same,T/C,[13],116 % of control
same,T/C,"dose: 33.0 mg/kg/injection, schedule: Q04DX003 (ip), vehicle: saline sonified",93 % of control
same,T/C,"dose: 33.3 mg/kg/injection, schedule: Q04DX003 (ip), vehicle: saline with Tween-80",102 % of control
same,T/C,"dose: 50.0 mg/kg/injection, schedule: Q04DX003 (ip), vehicle: saline with Tween-80",150 % of control
same,T/C,[12],106 % of control
CC1NCCCNCCCNC(C)c2cccc1n2 (stereo not drawn),T/C,"dose: 12.5 mg/kg/injection, schedule: Q04DX002 (ip), vehicle: saline",92 % of control
same,T/C,[15],89 % of control
COC(=O)C1CC(=O)c2ccc(OC)cc21 (stereo not drawn),T/C,"dose: 100.0 mg/kg/injection, schedule: Q01DX001 (ip), vehicle: Klucel (hydroxypropylcellulose) (HPC)",102 % of control
same,T/C,"dose: 200.0 mg/kg/injection, schedule: Q01DX001 (ip), vehicle: Klucel (hydroxypropylcellulose) (HPC)",92 % of control
same,T/C,"dose: 400.0 mg/kg/injection, schedule: Q01DX001 (ip), vehicle: Klucel (hydroxypropylcellulose) (HPC)",100 % of control
CCOC(=O)C1C(=O)CC(C)(O)C(C(=O)OCC)C1c1ccccc1 (stereo not drawn),T/C,[12],98 % of control
same,T/C,[6],104 % of control
same,T/C,"dose: 200.0 mg/kg/injection, schedule: Q01DX001 (ip), vehicle: saline",106 % of control
same,T/C,[8],100 % of control
same,T/C,"dose: 400.0 mg/kg/injection, schedule: Q01DX001 (ip), vehicle: saline",109 % of control
same,T/C,[10],94 % of control
C[N+](C)(CCOc1ccccc1)Cc1cccs1,T/C,[11],109 % of control
same,T/C,[12],97 % of control
CC(CN(C)C)C(=O)c1ccccc1 (stereo not drawn),T/C,"dose: 25.0 mg/kg/injection, schedule: Q01DX009 (ip), vehicle: Klucel (hydroxypropylcellulose) (HPC)",106 % of control
same,T/C,"dose: 25.0 mg/kg/injection, schedule: Q01DX009 (ip), vehicle: saline",105 % of control and 104 % of control
same,T/C,[15],104 % of control
same,T/C,"dose: 25.0 mg/kg/injection, schedule: Q04DX003 (ip), vehicle: Klucel (hydroxypropylcellulose) (HPC)",91 % of control
same,T/C,[13],98 % of control
same,T/C,"dose: 50.0 mg/kg/injection, schedule: Q01DX009 (ip), vehicle: Klucel (hydroxypropylcellulose) (HPC)",101 % of control
same,T/C,"dose: 50.0 mg/kg/injection, schedule: Q01DX009 (ip), vehicle: saline",110 % of control and 100 % of control
same,T/C,"dose: 50.0 mg/kg/injection, schedule: Q04DX002 (ip), vehicle: saline",96 % of control
same,T/C,"dose: 50.0 mg/kg/injection, schedule: Q04DX003 (ip), vehicle: Klucel (hydroxypropylcellulose) (HPC)",100 % of control
same,T/C,[14],88 % of control
same,T/C,[16],108 % of control
same,T/C,"dose: 100.0 mg/kg/injection, schedule: Q01DX009 (ip), vehicle: saline",102 % of control and 96 % of control
same,T/C,[5],96 % of control
same,T/C,[1],101 % of control and 102 % of control
same,T/C,[6],96 % of control and 103 % of control
CN(C)CCCN(CCCN(C)C)Cc1ccccc1,T/C,[2],104 % of control
same,T/C,[3],97 % of control
OC1CCC2C3CC=CC3C12 (stereo not drawn),T/C,"dose: 75.0 mg/kg/injection, schedule: Q01DX001 (ip), vehicle: other",93 % of control
same,T/C,"dose: 150.0 mg/kg/injection, schedule: Q01DX001 (ip), vehicle: other",98 % of control
same,T/C,"dose: 300.0 mg/kg/injection, schedule: Q01DX001 (ip), vehicle: other",106 % of control
CCCCCCCC/C=C\CCCCCCCC(=O)OCCCCCCCCCCCCCCCCCC,T/C,[16],104 % of control
same,T/C,"dose: 100.0 mg/kg/injection, schedule: Q01DX009 (ip), vehicle: saline sonified",105 % of control
same,T/C,"dose: 200.0 mg/kg/injection, schedule: Q01DX009 (ip), vehicle: Klucel (hydroxypropylcellulose) (HPC)",91 % of control
same,T/C,"dose: 200.0 mg/kg/injection, schedule: Q01DX009 (ip), vehicle: saline sonified",93 % of control
same,T/C,"dose: 400.0 mg/kg/injection, schedule: Q01DX009 (ip), vehicle: Klucel (hydroxypropylcellulose) (HPC)",105 % of control
same,T/C,"dose: 400.0 mg/kg/injection, schedule: Q01DX009 (ip), vehicle: saline sonified",98 % of control

# Source: PubChem BioAssay AID248 (DTP/NCI, 2004)
